Measurements from PubChem BioAssay (NCI).
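Growth conditions: 96-well plates. Treatment: test compound, 48 hours, 5 concentrations. Analysis: linear interpolation between bracketing concentrations; unreached endpoints set to highest concentration. GI50 marks 50% less growth. TGI: concentration producing complete growth inhibition.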

Experiments:
Assay in all cases: NCI-60 cell line screen, 48 h
[1] = system: EKVX NSCLC
[2] = system: SN12C renal
[3] = system: MDA-MB-435
[4] = system: MDA-MB-231 breast
[5] = system: HOP-92 NSCLC
[6] = system: SK-MEL-5 melanoma
[7] = system: NCI-H460 lung
[8] = system: SR leukemia
[9] = system: HCT-116 colon
[10] = system: SF-295 CNS
[11] = system: TK-10 renal
[12] = system: COLO 205 colon
[13] = system: CAKI-1 renal
[14] = system: 786-0 renal
[15] = system: UO-31 renal
[16] = system: RPMI-8226 leukemia
[17] = system: HCC-2998 colon
[18] = system: DU-145 prostate
[19] = system: NCI-H23 lung
[20] = system: CCRF-CEM leukemia
[21] = system: A549 NSCLC
[22] = system: HT29 colon
[23] = system: PC-3 prostate
[24] = system: M14 melanoma
[25] = system: SF-539 CNS
[26] = system: HCT-15 colon
[27] = system: SK-MEL-28 melanoma
[28] = system: HS 578T breast
[29] = system: SNB-75 CNS
[30] = system: HL-60(TB) leukemia
[31] = system: T-47D breast
[32] = system: MALME-3M melanoma
[33] = system: KM12 colon
[34] = system: BT-549 breast
[35] = system: ACHN renal
[36] = system: U251 CNS
[37] = system: LOX IMVI melanoma
[38] = system: SNB-19 CNS
[39] = system: RXF 393 renal
[40] = system: SW-620 colon
[41] = system: OVCAR-8 ovarian
[42] = system: K-562 leukemia
[43] = system: A498 renal
[44] = system: OVCAR-3 ovarian
[45] = system: IGROV1 ovarian
[46] = system: MCF7 breast
[47] = system: HOP-62 NSCLC
[48] = system: UACC-257 melanoma
[49] = system: NCI/ADR-RES ovarian
[50] = system: NCI-H522 lung
[51] = system: SF-268 CNS
[52] = system: NCI-H226 lung
[53] = system: OVCAR-5 ovarian
[54] = system: OVCAR-4 ovarian
[55] = system: SK-MEL-2 melanoma
[56] = system: UACC-62 melanoma
[57] = system: MOLT-4 leukemia
[58] = system: SK-OV-3 ovarian

In the case of `Nn1c2c(c3ccccc3c1=O)C(=O)c1ccccc1-2`, the GI50 [1] is reported as greater than 50 µM, the TGI [1] is reported as greater than 50 µM and the GI50 [2] is reported as greater than 50 µM. The TGI [2] was greater than 50 µM, the GI50 [3] was greater than 50 µM and the TGI [3] was greater than 50 µM. It also gave a GI50 [4] greater than 50 µM, a TGI [4] greater than 50 µM and a GI50 [5] greater than 50 µM. For the same molecule, the TGI [5] was greater than 50 µM, the GI50 [6] was greater than 50 µM and the TGI [6] was greater than 50 µM. For the same molecule, the GI50 [7] was 40.5 µM, the TGI [7] was greater than 50 µM and the GI50 [8] was 31 µM. For the same molecule, the TGI [8] was greater than 50 µM, the GI50 [9] was greater than 50 µM and the TGI [9] was greater than 50 µM. The GI50 [10] was 30.1 µM, the TGI [10] was greater than 50 µM and the GI50 [11] was 18.1 µM. It also gave a TGI [11] greater than 50 µM, a GI50 [12] greater than 50 µM and a TGI [12] greater than 50 µM. It also gave a GI50 [13] greater than 50 µM, a TGI [13] greater than 50 µM and a GI50 [14] of 37.7 µM. For the same molecule, the TGI [14] was greater than 50 µM, the GI50 [15] was greater than 50 µM and the TGI [15] was greater than 50 µM. The GI50 [16] was greater than 50 µM, the TGI [16] was greater than 50 µM and the GI50 [17] was greater than 50 µM. For the same molecule, the TGI [17] was greater than 50 µM, the GI50 [18] was greater than 50 µM and the TGI [18] was greater than 50 µM. For the same molecule, the GI50 [19] was greater than 50 µM, the TGI [19] was greater than 50 µM and the GI50 [20] was greater than 50 µM. The TGI [20] was greater than 50 µM, the GI50 [21] was greater than 50 µM and the TGI [21] was greater than 50 µM. The GI50 [22] was greater than 50 µM, the TGI [22] was greater than 50 µM and the GI50 [23] was greater than 50 µM. For the same molecule, the TGI [23] was greater than 50 µM, the GI50 [24] was greater than 50 µM and the TGI [24] was greater than 50 µM. For the same molecule, the GI50 [25] was 27.9 µM, the TGI [25] was greater than 50 µM and the GI50 [26] was greater than 50 µM. The TGI [26] was greater than 50 µM, the GI50 [27] was greater than 50 µM and the TGI [27] was greater than 50 µM. For the same molecule, the GI50 [28] was 18.4 µM, the TGI [28] was greater than 50 µM and the GI50 [29] was 11.6 µM. It also gave a TGI [29] of 33.5 µM, a GI50 [30] greater than 50 µM and a TGI [30] greater than 50 µM. For the same molecule, the GI50 [31] was greater than 50 µM, the TGI [31] was greater than 50 µM and the GI50 [32] was greater than 50 µM. It also gave a TGI [32] greater than 50 µM, a GI50 [33] greater than 50 µM and a TGI [33] greater than 50 µM. It also gave a GI50 [34] greater than 50 µM, a TGI [34] greater than 50 µM and a GI50 [35] greater than 50 µM. It also gave a TGI [35] greater than 50 µM, a GI50 [36] of 20.5 µM and a TGI [36] greater than 50 µM. The GI50 [37] was greater than 50 µM, the TGI [37] was greater than 50 µM and the GI50 [38] was 20.9 µM. The TGI [38] was greater than 50 µM, the GI50 [39] was 15.7 µM and the TGI [39] was greater than 50 µM. It also gave a GI50 [40] greater than 50 µM, a TGI [40] greater than 50 µM and a GI50 [41] of 26.7 µM. The TGI [41] was greater than 50 µM, the GI50 [42] was greater than 50 µM and the TGI [42] was greater than 50 µM. For the same molecule, the GI50 [43] was greater than 50 µM, the TGI [43] was greater than 50 µM and the GI50 [44] was greater than 50 µM. It also gave a TGI [44] greater than 50 µM, a GI50 [45] greater than 50 µM and a TGI [45] greater than 50 µM. The GI50 [46] was 20 µM, the TGI [46] was greater than 50 µM and the GI50 [47] was 24.5 µM. For the same molecule, the TGI [47] was greater than 50 µM, the GI50 [48] was greater than 50 µM and the TGI [48] was greater than 50 µM. It also gave a GI50 [49] greater than 50 µM, a TGI [49] greater than 50 µM and a GI50 [50] of 30.1 µM. The TGI [50] was greater than 50 µM, the GI50 [51] was 15.7 µM and the TGI [51] was greater than 50 µM. The GI50 [52] was 48.3 µM, the TGI [52] was greater than 50 µM and the GI50 [53] was greater than 50 µM. For the same molecule, the TGI [53] was greater than 50 µM, the GI50 [54] was greater than 50 µM and the TGI [54] was greater than 50 µM. It also gave a GI50 [55] greater than 50 µM, a TGI [55] greater than 50 µM and a GI50 [56] greater than 50 µM. It also gave a TGI [56] greater than 50 µM.
With `COc1ccc2c(c1)[n+]([O-])c(C#N)c(NC(=O)c1cccs1)[n+]2[O-]` the GI50 [1] was greater than 100 µM, the TGI [1] was greater than 100 µM and the GI50 [2] was greater than 100 µM. For the same molecule, the TGI [2] was greater than 100 µM, the GI50 [3] was greater than 100 µM and the TGI [3] was greater than 100 µM. For the same molecule, the GI50 [4] was greater than 100 µM, the TGI [4] was greater than 100 µM and the GI50 [5] was greater than 100 µM. The TGI [5] was greater than 100 µM, the GI50 [6] was greater than 100 µM and the TGI [6] was greater than 100 µM. For the same molecule, the GI50 [7] was greater than 100 µM, the TGI [7] was greater than 100 µM and the GI50 [8] was greater than 100 µM. It also gave a TGI [8] greater than 100 µM, a GI50 [9] greater than 100 µM and a TGI [9] greater than 100 µM. It also gave a GI50 [10] greater than 100 µM, a TGI [10] greater than 100 µM and a GI50 [11] greater than 100 µM. The TGI [11] was greater than 100 µM, the GI50 [12] was greater than 100 µM and the TGI [12] was greater than 100 µM. The GI50 [13] was greater than 100 µM, the TGI [13] was greater than 100 µM and the GI50 [14] was greater than 100 µM. It also gave a TGI [14] greater than 100 µM, a GI50 [15] greater than 100 µM and a TGI [15] greater than 100 µM. For the same molecule, the GI50 [16] was greater than 100 µM, the TGI [16] was greater than 100 µM and the GI50 [17] was greater than 100 µM. It also gave a TGI [17] greater than 100 µM, a GI50 [18] greater than 100 µM and a TGI [18] greater than 100 µM. It also gave a GI50 [19] greater than 100 µM, a TGI [19] greater than 100 µM and a GI50 [20] greater than 100 µM. The TGI [20] was greater than 100 µM, the GI50 [21] was greater than 100 µM and the TGI [21] was greater than 100 µM. The GI50 [22] was greater than 100 µM, the TGI [22] was greater than 100 µM and the GI50 [23] was greater than 100 µM. For the same molecule, the TGI [23] was greater than 100 µM, the GI50 [24] was greater than 100 µM and the TGI [24] was greater than 100 µM. The GI50 [25] was greater than 100 µM, the TGI [25] was greater than 100 µM and the GI50 [26] was greater than 100 µM. The TGI [26] was greater than 100 µM, the GI50 [27] was greater than 100 µM and the TGI [27] was greater than 100 µM. It also gave a GI50 [28] greater than 100 µM, a TGI [28] greater than 100 µM and a GI50 [29] greater than 100 µM. The TGI [29] was greater than 100 µM, the GI50 [30] was greater than 100 µM and the TGI [30] was greater than 100 µM. For the same molecule, the GI50 [31] was greater than 100 µM, the TGI [31] was greater than 100 µM and the GI50 [32] was greater than 100 µM. It also gave a TGI [32] greater than 100 µM, a GI50 [33] greater than 100 µM and a TGI [33] greater than 100 µM. For the same molecule, the GI50 [34] was greater than 100 µM, the TGI [34] was greater than 100 µM and the GI50 [35] was greater than 100 µM. The TGI [35] was greater than 100 µM, the GI50 [36] was greater than 100 µM and the TGI [36] was greater than 100 µM. It also gave a GI50 [37] greater than 100 µM, a TGI [37] greater than 100 µM and a GI50 [38] greater than 100 µM. For the same molecule, the TGI [38] was greater than 100 µM, the GI50 [39] was greater than 100 µM and the TGI [39] was greater than 100 µM. For the same molecule, the GI50 [57] was greater than 100 µM, the TGI [57] was greater than 100 µM and the GI50 [40] was greater than 100 µM. The TGI [40] was greater than 100 µM, the GI50 [41] was greater than 100 µM and the TGI [41] was greater than 100 µM. For the same molecule, the GI50 [42] was greater than 100 µM, the TGI [42] was greater than 100 µM and the GI50 [43] was greater than 100 µM. It also gave a TGI [43] greater than 100 µM, a GI50 [44] greater than 100 µM and a TGI [44] greater than 100 µM. For the same molecule, the GI50 [46] was greater than 100 µM, the TGI [46] was greater than 100 µM and the GI50 [47] was greater than 100 µM. The TGI [47] was greater than 100 µM, the GI50 [58] was greater than 100 µM and the TGI [58] was greater than 100 µM. For the same molecule, the GI50 [48] was greater than 100 µM, the TGI [48] was greater than 100 µM and the GI50 [49] was greater than 100 µM. It also gave a TGI [49] greater than 100 µM, a GI50 [50] greater than 100 µM and a TGI [50] greater than 100 µM. For the same molecule, the GI50 [51] was greater than 100 µM, the TGI [51] was greater than 100 µM and the GI50 [52] was greater than 100 µM. It also gave a TGI [52] greater than 100 µM, a GI50 [53] greater than 100 µM and a TGI [53] greater than 100 µM. The GI50 [54] was greater than 100 µM, the TGI [54] was greater than 100 µM and the GI50 [56] was greater than 100 µM. For the same molecule, the TGI [56] was greater than 100 µM.
